Activity calls are given as the source filed them. The calls are words filed in the database; no cut-off is given here.
Experiments:
SARS-CoV-2 [1] = assay: Antiviral activity against SARS-CoV-2 infected in Vero E6 cells preincubated for 1 hr followed by methylcellulose addition and measured after 25 to 26 hrs by EliSpot reader based analysis; assay type: functional, organism-based; settings: Severe acute respiratory syndrome coronavirus 2, Vero C1008
[2] = target: T1, Replicase polyprotein 1ab (Severe acute respiratory syndrome coronavirus 2, UniProt P0DTD1); assay: Inhibition of SARS-CoV-2 main protease using MCA-AVLQSGFR-Lys(Dnp)-Lys-NH2 as substrate preincubated for 30 mins followed by substrate addition and measured every 10 sec for 10 mins by FRET assay
[3] = Cytotoxicity against african green monkey Vero E6 cells assessed as reduction in cell viability after 26 hrs by MTS assay; assay type: toxicity, cell-based, Vero C1008; settings: chlorocebus sabaeus
SARS-CoV-2 [4] = assay: Antiviral activity against SARS-CoV-2 infected in Vero E6 cells; assay type: functional, organism-based; settings: Severe acute respiratory syndrome coronavirus 2, Vero C1008
[5] = target: T1, Replicase polyprotein 1ab; assay: Inhibition of SARS-CoV-2 main protease incubated for 30 mins by FRET based assay
[6] = Cytotoxicity against african green monkey Vero E6 cells; assay type: toxicity, cell-based, Vero C1008; settings: chlorocebus sabaeus
SARS-CoV-2 [7] = assay: Antiviral activity against SARS-CoV-2 infected in VeroE6 cells measured after 24 hrs post infection by plaque assay; assay type: functional, organism-based; settings: Severe acute respiratory syndrome coronavirus 2, Vero C1008, 24 h
Cathepsin B = Cathepsin B (Homo sapiens, UniProt P07858); assay: Inhibition of human cathepsin B using Z-Leu-Arg-AMC as substrate by […] assay; assay type: toxicity
[8] = target: Replicase polyprotein 1ab (Severe acute respiratory syndrome coronavirus 2) (UniProt P0DTD1); assay: Irreversible inhibition of SARS-CoV-2 main protease assessed as ratio of Kinact/Ki incubated for 60 mins by MS analysis
Cathepsin K = target: T2, Cathepsin K (Homo sapiens, UniProt P43235); assay: Inhibition of human cathepsin K using Ac-LR-AFC as substrate by […] assay; assay type: toxicity
T2 sequence (P43235 whole entry): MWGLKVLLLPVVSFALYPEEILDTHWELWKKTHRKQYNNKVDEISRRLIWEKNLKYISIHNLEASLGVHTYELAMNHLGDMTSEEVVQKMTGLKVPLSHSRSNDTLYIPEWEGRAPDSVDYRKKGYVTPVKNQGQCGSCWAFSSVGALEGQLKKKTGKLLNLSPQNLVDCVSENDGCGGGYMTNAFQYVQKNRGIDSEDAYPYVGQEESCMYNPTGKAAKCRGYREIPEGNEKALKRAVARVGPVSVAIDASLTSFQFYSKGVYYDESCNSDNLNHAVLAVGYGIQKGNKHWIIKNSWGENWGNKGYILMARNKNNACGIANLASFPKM

Caspase-3 = target: T3, Caspase-3 (Homo sapiens, UniProt P42574); assay: Inhibition of human caspase 3 using Ac-Asp-Glu-Val-Asp-pNA as substrate by […] assay; assay type: toxicity
T3 sequence (P42574 whole entry): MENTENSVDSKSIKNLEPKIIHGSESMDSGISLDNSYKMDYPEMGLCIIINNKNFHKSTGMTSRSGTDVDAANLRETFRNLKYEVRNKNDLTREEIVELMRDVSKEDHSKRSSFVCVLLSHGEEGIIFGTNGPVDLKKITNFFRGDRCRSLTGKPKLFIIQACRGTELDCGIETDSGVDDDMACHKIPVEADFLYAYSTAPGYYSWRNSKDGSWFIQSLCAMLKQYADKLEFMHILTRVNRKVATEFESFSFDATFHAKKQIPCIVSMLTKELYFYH

[9] = target: Replicase polyprotein 1ab (Severe acute respiratory syndrome coronavirus 2) (UniProt P0DTD1); assay: Potency index, ratio of IC50 for MCULE-5948770040 to IC50 for test compound for inhibition of SARS-COV-2 main protease
[10] = target: Replicase polyprotein 1ab (Severe acute respiratory syndrome coronavirus 2) (UniProt P0DTD1); assay: Covalent inhibition of SARS-CoV-2 main protease assessed as protein-compound adduct formation incubated for 30 mins by MALDI-TOF analysis
Procathepsin L = Procathepsin L (Homo sapiens, UniProt P07711); assay: Inhibition of human cathepsin L using Z-Leu-Arg-AMC as substrate by […] assay; assay type: toxicity
Cathepsin F = target: T4, Cathepsin F (Homo sapiens, UniProt Q9UBX1); assay: Inhibition of human cathepsin F using Z-Phe-Arg-AMC as substrate by […] assay; assay type: toxicity
T4 sequence (Q9UBX1 whole entry): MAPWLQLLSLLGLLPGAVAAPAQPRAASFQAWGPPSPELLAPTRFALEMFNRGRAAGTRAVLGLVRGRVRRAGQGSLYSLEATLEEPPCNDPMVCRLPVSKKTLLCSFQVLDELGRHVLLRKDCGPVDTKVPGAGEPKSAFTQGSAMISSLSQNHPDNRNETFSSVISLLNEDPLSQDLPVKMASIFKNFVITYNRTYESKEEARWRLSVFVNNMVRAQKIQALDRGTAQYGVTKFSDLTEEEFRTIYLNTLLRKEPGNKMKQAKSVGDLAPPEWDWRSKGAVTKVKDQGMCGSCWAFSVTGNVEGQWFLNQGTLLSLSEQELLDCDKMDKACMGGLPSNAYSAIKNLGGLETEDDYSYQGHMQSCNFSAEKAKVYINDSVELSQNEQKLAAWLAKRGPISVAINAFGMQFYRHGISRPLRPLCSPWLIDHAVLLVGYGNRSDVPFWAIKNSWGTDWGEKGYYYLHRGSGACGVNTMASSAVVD

[11] = target: T1, Replicase polyprotein 1ab; assay: Inhibition of SARS-CoV-2 main protease
SARS-CoV-2 [12] = assay: Antiviral activity against SARS-CoV-2 infected in Vero E6 cells assessed as reduction in virus induced cytopathic effect incubated for 3 days; assay type: functional, organism-based; settings: Severe acute respiratory syndrome coronavirus 2, Vero C1008, 72 h

Chain of Procathepsin L (P07711 whole entry): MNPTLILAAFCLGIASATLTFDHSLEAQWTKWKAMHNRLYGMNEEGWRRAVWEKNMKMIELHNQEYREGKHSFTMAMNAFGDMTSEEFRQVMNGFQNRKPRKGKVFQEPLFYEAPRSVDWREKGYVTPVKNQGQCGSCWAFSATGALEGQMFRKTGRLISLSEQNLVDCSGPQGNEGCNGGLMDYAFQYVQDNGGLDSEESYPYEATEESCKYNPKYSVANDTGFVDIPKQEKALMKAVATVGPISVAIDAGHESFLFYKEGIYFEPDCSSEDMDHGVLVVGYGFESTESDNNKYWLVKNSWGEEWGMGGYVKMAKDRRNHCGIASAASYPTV

SMILES | EC50 (SARS-CoV-2 [1]) [nM] | IC50 [2] [nM] | CC50 at 26 h [3] [nM] | further results
O=C(NCc1cccs1)[C@@H]1CN(C(=O)C(F)(F)S(=O)(=O)F)CCN1c1ccc(Cl)c(Cl)c1 | 183000 | 1600 | > 100000 | 
C#CC(=O)N1CCN(c2ccc(Cl)c(Cl)c2)[C@H](C(=O)NCc2cccs2)C1 | 1370 | 2800 | 11900 | 
CCC(CC)COC(=O)[C@H](C)N[P@](=O)(OC[C@H]1O[C@@](C#N)(c2ccc3c(N)ncnn23)[C@H](O)[C@@H]1O)Oc1ccccc1 | 2270 |  | > 100000 | 
O=C(NCc1cccs1)[C@@H]1CN(C(=O)c2cccnc2)CCN1c1ccc(Cl)c(Cl)c1 | 400 | 400 | > 100000 | 
CC(C)(C)NC(=O)C(c1cccnc1)N(C(=O)c1ccco1)c1ccc(C(C)(C)C)cc1 (stereo unspecified) |  |  |  | EC50 (SARS-CoV-2 [4]): > 20000 nM
C[C@H](NC(=O)[C@@H](c1cccnc1)N(C(=O)C(Cl)Cl)c1ccc(-c2ccccc2)cc1)c1ccccc1 |  |  |  | EC50 (SARS-CoV-2 [4]): 670 nM; IC50 [5]: 670 nM; CC50 [6]: 33100 nM
O=C[C@H](C[C@@H]1CCNC1=O)NC(=O)[C@H](CC1CCCCC1)NC(=O)c1cc2ccccc2[nH]1 |  |  |  | EC50 (SARS-CoV-2 [7]): 420 nM
O=C(NCc1cccs1)[C@@H]1CN(C(=O)CCl)CCN1c1ccc(Cl)c(Cl)c1 | 2640 | 180 | 12500 | IC50 (Cathepsin B): > 30000 nM; Ratio [8]: 21500 M⁻¹ s⁻¹; IC50 (Cathepsin K): > 30000 nM; IC50 (Caspase-3): > 30000 nM; Ratio IC50 [9]: 28; inhibition [10]: Active; IC50 (Procathepsin L): > 30000 nM; IC50 (Cathepsin F): > 30000 nM
O=C(NCc1cccs1)[C@@H]1CN(C(=O)CBr)CCN1c1ccc(Cl)c(Cl)c1 | 4240 | 310 | 6500 | Ratio IC50 [9]: 16
[2H][C@](C(=O)N[C@@H](C)c1ccc(F)cc1)(c1cccnc1)N(C(=O)C(C)=O)c1ccc2c(c1)oc1ccccc12 |  |  |  | EC50 (SARS-CoV-2 [4]): 900 nM; IC50 [11]: 8 nM
CC(C)(C)[C@H](NC(=O)C(F)(F)F)C(=O)N1C[C@H]2[C@@H]([C@H]1C(=O)N[C@H](C#N)C[C@@H]1CCNC1=O)C2(C)C |  |  | > 100000 | 
O=c1c2ccccc2[se]n1-c1ccccc1 [EBSELEN] |  |  |  | CC50 [6]: > 20000 nM
COc1cccc2[nH]c(C(=O)N[C@@H](CC(C)C)C(=O)N[C@@H](C[C@@H]3CCNC3=O)C(=O)CO)cc12 [PF-00835231] |  |  |  | EC50 (SARS-CoV-2 [12]): 230 nM

Source: ChEMBL document CHEMBL5150072, “Discovery and Crystallographic Studies of Nonpeptidic Piperazine Derivatives as Covalent SARS-CoV-2 Main Protease Inhibitors” (J Med Chem, 2022)
